From patent US10294202B2, “Pyrrolidinones as herbicides” (FMC Corporation, priority 2013, dated 2019)

Legend:
ducksalad = assay: Test B flooded paddy test; format: in vivo, Heteranthera limosa; conditions: Flood, scale of 0 to 100 where 0 is no effect and 100 is complete control
Method in brief: (§1)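 Scoring: visual, compared with untreated controls, 0 = no effect through 100 = complete control, taken 13 to 15 days after treatment in the greenhouse. Compounds had been added to paddy water over soil flooded 3 cm deep at the plants' 2-leaf stage.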

pigweed = assay: Test A pre-/postemergence herbicide test; format: in vivo, Amaranthus retroflexus
Method in brief: (§2)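 Visual injury ratings, 0 = no effect, 100 = complete control, taken ~10 days after treatment against untreated greenhouse controls. Preemergence: directed soil spray onto seeded loam/sand pots. Postemergence: spray onto plants at one- to two-leaf stage, 2–10 cm tall.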

rice = assay: Test B flooded paddy test; format: in vivo, Oryza sativa; conditions: Flood, scale of 0 to 100 where 0 is no effect and 100 is complete control
Method in brief: as §1

sedge, umbrella = assay: Test B flooded paddy test; format: in vivo, Cyperus difformis; conditions: Flood, scale of 0 to 100 where 0 is no effect and 100 is complete control
Method in brief: as §1

barnyardgrass [1] = assay: Test A pre-/postemergence herbicide test; format: in vivo, Echinochloa crus-galli
Method in brief: as §2

crabgrass, large = assay: Test A pre-/postemergence herbicide test; format: in vivo, Digitaria sanguinalis
Method in brief: as §2

morningglory = assay: Test A pre-/postemergence herbicide test; format: in vivo, Ipomoea spp.
Method in brief: as §2

wheat = assay: Test A pre-/postemergence herbicide test; format: in vivo, Triticum aestivum
Method in brief: as §2

corn = assay: Test A pre-/postemergence herbicide test; format: in vivo, Zea mays
Method in brief: as §2

velvetleaf = assay: Test A pre-/postemergence herbicide test; format: in vivo, Abutilon theophrasti
Method in brief: as §2

giant foxtail = assay: Test A pre-/postemergence herbicide test; format: in vivo, Setaria faberii
Method in brief: as §2

barnyardgrass [2] = assay: Test B flooded paddy test; format: in vivo, Echinochloa crus-galli; conditions: Flood, scale of 0 to 100 where 0 is no effect and 100 is complete control
Method in brief: as §1

[3] = Postemergence, 1000 g ai/ha, 0 to 100 scale (0 no effect, 100 complete control)
[4] = Preemergence, 1000 g ai/ha, visual rating on 0 to 100 scale (0 no effect, 100 complete control), approx. 10 days
[5] = Postemergence, 125 g ai/ha, visual rating on 0 to 100 scale (0 no effect, 100 complete control), approx. 10 days
[6] = Postemergence, 500 g ai/ha, 0 to 100 scale (0 no effect, 100 complete control)
[7] = Preemergence, 125 g ai/ha, 0 to 100 scale where 0 is no effect and 100 is complete control
[8] = preemergence, 500 g ai/ha, 0 to 100 scale, 0 is no effect and 100 is complete control
[9] = Postemergence, 125 g ai/ha, 0 to 100 scale, 0 is no effect, 100 is complete control

With O=C1NCC(c2ccc(Cl)c(Cl)c2)C1C(=O)Nc1ccccc1[N+](=O)[O-] (stereo not shown) [Compound 39] the “Plant response rating, Ducksalad” value (ducksalad; 250 g ai/ha) was 0, the “Plant response rating, Pigweed” value (pigweed; [3]) was 50 and the “Plant response rating, Pigweed” value (pigweed; [4]) was 0. For the same compound, the “Plant response rating, Rice” value (rice; 250 g ai/ha) was 0, the “Plant response rating, Sedge, Umbrella” value (sedge, umbrella; 250 g ai/ha) was 0 and the “Plant response rating, Barnyardgrass” value (barnyardgrass [1]; [3]) was 50. For the same compound, the “Plant response rating, Barnyardgrass” value (barnyardgrass [1]; [4]) was 70, the “Plant response rating, Crabgrass, Large” value (crabgrass, large; [3]) was 80 and the “Plant response rating, Crabgrass, Large” value (crabgrass, large; [4]) was 90. For the same compound, the “Plant response rating, Morningglory” value (morningglory; [3]) was 10, the “Plant response rating, Morningglory” value (morningglory; [4]) was 0 and the “Plant response rating, Wheat” value (wheat; [3]) was 40. For the same compound, the “Plant response rating, Wheat” value (wheat; [4]) was 0, the “Plant response rating, Corn” value (corn; [3]) was 0 and the “Plant response rating, Corn” value (corn; [4]) was 0. For the same compound, the “Plant response rating, Velvetleaf” value (velvetleaf; [3]) was 10, the “Plant response rating, Velvetleaf” value (velvetleaf; [4]) was 0 and the “Plant response rating, Foxtail, Giant” value (giant foxtail; [3]) was 70. The “Plant response rating, Foxtail, Giant” value (giant foxtail; [4]) was 80 and the “Plant response rating, Barnyardgrass” value (barnyardgrass [2]; 250 g ai/ha) was 0.

In the case of O=C1NCC(c2ccc(Cl)c(C(F)(F)F)c2)C1C(=O)Nc1ccccc1F (racemic) [Compound 267], the “Plant response rating, Ducksalad” value (ducksalad; 1000 g ai/ha) is reported as 100, the “Plant response rating, Pigweed” value (pigweed; [5]) is reported as 0 and the “Plant response rating, Pigweed” value (pigweed; [6]) is reported as 60. The “Plant response rating, Pigweed” value (pigweed; [7]) was 0, the “Plant response rating, Pigweed” value (pigweed; [8]) was 50 and the “Plant response rating, Rice” value (rice; 1000 g ai/ha) was 15. The “Plant response rating, Sedge, Umbrella” value (sedge, umbrella; 1000 g ai/ha) was 0, the “Plant response rating, Barnyardgrass” value (barnyardgrass [1]; [9]) was 70 and the “Plant response rating, Barnyardgrass” value (barnyardgrass [1]; [6]) was 80. The “Plant response rating, Barnyardgrass” value (barnyardgrass [1]; [7]) was 70, the “Plant response rating, Barnyardgrass” value (barnyardgrass [1]; [8]) was 80 and the “Plant response rating, Crabgrass, Large” value (crabgrass, large; [9]) was 80. For the same compound, the “Plant response rating, Crabgrass, Large” value (crabgrass, large; [6]) was 90, the “Plant response rating, Crabgrass, Large” value (crabgrass, large; [7]) was 90 and the “Plant response rating, Crabgrass, Large” value (crabgrass, large; [8]) was 90. For the same compound, the “Plant response rating, Morningglory” value (morningglory; [5]) was 0, the “Plant response rating, Morningglory” value (morningglory; [6]) was 60 and the “Plant response rating, Morningglory” value (morningglory; [7]) was 0. The “Plant response rating, Morningglory” value (morningglory; [8]) was 0, the “Plant response rating, Wheat” value (wheat; [5]) was 0 and the “Plant response rating, Wheat” value (wheat; [6]) was 0. The “Plant response rating, Wheat” value (wheat; [7]) was 0, the “Plant response rating, Wheat” value (wheat; [8]) was 0 and the “Plant response rating, Corn” value (corn; [9]) was 40. For the same compound, the “Plant response rating, Corn” value (corn; [6]) was 70, the “Plant response rating, Corn” value (corn; [7]) was 0 and the “Plant response rating, Corn” value (corn; [8]) was 0. The “Plant response rating, Velvetleaf” value (velvetleaf; [5]) was 30, the “Plant response rating, Velvetleaf” value (velvetleaf; [7]) was 0 and the “Plant response rating, Velvetleaf” value (velvetleaf; [8]) was 0. For the same compound, the “Plant response rating, Foxtail, Giant” value (giant foxtail; [9]) was 70, the “Plant response rating, Foxtail, Giant” value (giant foxtail; [6]) was 80 and the “Plant response rating, Foxtail, Giant” value (giant foxtail; [7]) was 80. The “Plant response rating, Foxtail, Giant” value (giant foxtail; [8]) was 90 and the “Plant response rating, Barnyardgrass” value (barnyardgrass [2]; 1000 g ai/ha) was 20.
